Experimental data from patent US20250197417A1, “CRYSTALLINE INTERMEDIATES” (QBIOTICS PTY LTD, priority 2021, published 2025).

Experiments:
[1] = Storage stability of crystalline forms of compound of formula (Ia); format: physicochemical
Protocol: Form A of the crystalline anhydrous Compound of formula (Ia) was stable for at least 9 months in industrial packaging (Type III amber glass vial (10 mL) closed by a black plastic screw cap with polyethylene stoppers) at 25° C. and 60% relative humidity and as a free crystalline powder at 80° C. and 60% humidity for 24 hours.
The anhydrous crystalline Form B was characterized by an X-ray powder diffraction (X-RPD) pattern obtained using the copper wavelengths λ1 and λ2 of 1.54056 Å and 1.54439 Å showing a crystalline structure and comprising distinctive reflections, expressed as 20 degrees values, at 4.9, 8.5, 9.8, 11.4, 14.6, 16.5, 17.5, 19.5, 21.4, 27.7, 28.7±0.2 degrees 2θ.

[2] = Crystallization study, preliminary solvent screening (solubility comments); format: physicochemical
Description: An aliquot of purified compound of formula (Ia) obtained from Example 4 (0.83 L containing about 10 g of compound) was used in the crystallization study.

For `CC1=CC2[C@]3(O)C(C4C(C)(C)[C@]4(O)[C@H](O)[C@H]3C)[C@@H]3O[C@@]34COC(C)(C)O[C@H]4[C@]2(O)C1=O` (stereo partly shown) [Form B], the “stable unchanged (further storage time)” value ([1]; 25° C. at 80% relative humidity) was ≥ 7 days.

For `CC1=CC2[C@]3(O)C(C4C(C)(C)[C@]4(O)[C@H](O)[C@H]3C)[C@@H]3O[C@@]34COC(C)(C)O[C@H]4[C@]2(O)C1=O` (stereo partly shown) [dihydrate form], the “solid form change upon storage” value ([1]; storage at 25° C. and 80% relative humidity for 5 days) was “transformed back to Form A”.

With `CC1=CC2[C@]3(O)C(C4C(C)(C)[C@]4(O)[C@H](O)[C@H]3C)[C@@H]3O[C@@]34COC(C)(C)O[C@H]4[C@]2(O)C1=O` (stereo partly shown) [Compound of formula (Ia)] the “Comment (solubility)” value ([2]; 2-Propanol, 5 V → 10 V, 20-25° C. → reflux, remained dissolved) was “Remained”, the “Comment (solubility)” value ([2]; Acetone, 5 V → 10 V, 20-25° C. → reflux, soluble only with 10 V of acetone at reflux) was “Soluble only” and the “Comment (solubility)” value ([2]; Acetonitrile, 5 V → 10 V, 20-25° C. → reflux, dissolution observed at reflux) was “Dissolution”. The “Comment (solubility)” value ([2]; Dimethylformamide, 5 V → 10 V, 20-25° C., soluble only with 10 V of DMF) was “Soluble only”, the “Comment (solubility)” value ([2]; Ethyl acetate, 5 V → 10 V, 20-25° C., remained dissolved) was “Remained” and the “Comment (solubility)” value ([2]; Methyl tert-butyl ether, 5 V → 20 V, 20-25° C. → reflux) was “Not soluble”.

For `CC1=CC2[C@]3(O)C(C4C(C)(C)[C@]4(O)[C@H](O)[C@H]3C)[C@@H]3O[C@@]34COC(C)(C)O[C@H]4[C@]2(O)C1=O` (stereo partly shown) [Form A], the “stable (storage time)” value ([1]; free crystalline powder, 80° C. and 60% humidity) was 24 h, the “stable (storage time)” value ([1]; industrial packaging (Type III amber glass vial, 10 mL, screw cap with polyethylene stoppers), 25° C. and 60% relative humidity) was “at least 9 months” and the “solid form change upon storage” value ([1]; storage at 5° C. for 5 days) was “transformed into a dihydrate form”. The “solid form change upon storage” value ([1]; storage at 25° C. at 80% relative humidity for 68 hours) was “a new stable anhydrous crystalline form was formed, Form B” and the “solid form change upon storage” value ([1]; storage at 40° C. at 80% relative humidity for 7 days) was “a new stable anhydrous crystalline form was formed, Form B”.
